Assay results: US9867886B2, “Complex in which anti-cotinine antibody is bound to conjugate of cotinine and binding substance, and use thereof” (SNU R&DB FOUNDATION, priority 2011, dated 2018)
m = 2'-O-methyl; r = 2'-OH (RNA); f = 2'-fluoro

Legend:
mouse = settings: cited from earlier work
[1] = in vivo; cited from earlier work
humans = settings: cited from earlier work
[2] = Pharmacokinetics of cotinine-pegaptanib and its anti-cotinine IgG complex in mice (serum VEGF ELISA); assay type: in vivo; settings: ICR mouse, tail vein, 0.135 mg/kg
Experimental: Male wild-type ICR mouse aged from 4 to 6 weeks were injected through tail vein with cotinine-pegaptanib (0.135 mg/kg) and a cotinine-pegaptanib (0.135 mg/kg)/anti-cotinine IgG (1 mg/kg) complex, diluted in 100 μL of PBS. Each peripheral blood was obtained through the orbital plexus at 0, 0.5, 1, 1.5 and 2 hours after the injection, and the obtained peripheral blood was maintained at a room temperature for 30 minutes then centrifuged at 800 g for 15 minutes to collect supernatant only so that serum was obtained, and analyzed by using ELISA.
Each well of a 96-well ELISA plate was coated with 50 ng of human VEGF dissolved in PBS overnight, and then blocked by PBSB. Then, each serum was diluted in PBSB at a ratio of 1:100, and added to each well with 100 nM of an anti-cotinine IgG The plate was maintained at a room temperature for one hour and washed with PBS-T, and then HRP-bound rabbit anti-human Fc specific IgG (Thermo Fisher Scientific) was added to each well. The resultant mixture was maintained at room temperature for one hour. Subsequently, 3,3′,5,5′-tetramethylbenzidine (TMB) (Thermo Fisher Scientific) was added as a substrate to the resultant mixture, and kept at a room temperature for 15 minutes, followed by measuring the optical density at 650 nm.

**Q.** With `CN1C(=O)CC[C@H]1c1cccnc1` [cotinine] as the compound, how does the LD50 (mouse) read?
**A.** Its LD50 is 2000 to 4000 mg/kg.

**Q.** And the half-life in serum [1]?
**A.** The half-life in serum was “about 16 hours”.

**Q.** What about the side effects (humans; 4-day administration at a daily dose of 1.8 g) of the same compound?
**A.** Its side effects is “no particular side effects have not been reported”.

**Q.** What about the “physiological activity; physiological and behavioral changes” value (humans; humans, maximally 160 mg for three days) of the same compound?
**A.** Its value is “any physiological and behavioral changes have not been reported”.

**Q.** For “cotinine-pegaptanib: nucleic acid part of pegaptanib RNA aptamer (SEQ ID NO: 5) conjugated with cotinine via amino C6 linker (CGGAAUCAGUGAAUGCUUAUACAUCCG; sugars from the 5' end fmmrrffmmfmmmfmfffmfmfmfffm, backbone not given here; cotinine conjugated via amino C6 linker, further chemistry not fully specified)”, which “degradation after injection into the body” value [2] is on record?
**A.** The value was “degraded immediate after injection into the body”.
